ChEMBL document CHEMBL1146505, “Flavonoid glycosides from Adina racemosa and their inhibitory activities on eukaryotic protein synthesis” (2004)
Active and inactive are the calls of the source. The rule behind the calls is not given here.

Tests used:
Type in all cases: functional
[1] = (§1) Inhibition of protein synthesis in mouse Krebs cells overexpressing (CAG)33/FF/HCV/Ren mRNA reporter transcript assessed as firefly luciferase production at 100 uM relative to control
[2] = (§2) Inhibition of protein synthesis in mouse Krebs cells overexpressing (CAG)33/FF/HCV/Ren mRNA reporter transcript assessed as renilla luciferase production at 100 uM relative to control
Krebs [3] = experiment: as §1
Krebs [4] = experiment: as §2
[5] = Inhibition of translation in mouse Krebs cells overexpressing (CAG)33/FF/HCV/Ren mRNA reporter transcript assessed as luciferase production at 100 uM relative to control
Escherichia coli = experiment: Inhibition of bacterial protein synthesis in Escherichia coli S30 overexpressing pBEST/luc and [35S]met assessed as [35S]met incorporation
Oryctolagus cuniculus = organism: Oryctolagus cuniculus; experiment: Inhibition of translation initiation in rabbit reticulocyte lysates with [32P]CAT mRNA assessed as 80S initiation complex formation at 50 uM by ribosome binding assay in presence of cycloheximide

Row | Structure (SMILES) | fold change (FC) [1] | fold change (FC) [2] | Activity (Krebs [3]) | Activity (Krebs [4]) | fold change (FC) [5] | Activity (Escherichia coli) | Activity (Oryctolagus cuniculus)
1 | C[C@@H]1O[C@@H](OC[C@H]2O[C@@H](Oc3c(-c4ccc(O)c(O)c4)oc4cc(O)cc(O)c4c3=O)[C@H](O)[C@@H](OC(=O)/C=C/c3ccc(O)cc3)[C@H]2O)[C@H](O)[C@H](O)[C@H]1O | 2 | 2 | – | – | – | – | –
2 | C[C@@H]1O[C@@H](OC[C@H]2O[C@@H](Oc3c(-c4ccc(O)cc4)oc4cc(O)cc(O)c4c3=O)[C@H](O)[C@@H](O)[C@H]2OC(=O)/C=C/c2ccccc2)[C@H](O)[C@H](O)[C@H]1O | 2 | 2 | – | – | – | – | –
3 | C[C@@H]1O[C@@H](OC[C@H]2O[C@@H](Oc3c(-c4ccc(O)cc4)oc4cc(O)cc(O)c4c3=O)[C@H](O[C@@H]3O[C@@H](C)[C@H](OC(=O)/C=C/c4ccc(O)cc4)[C@@H](O)[C@H]3O)[C@@H](O)[C@H]2OC(=O)/C=C/c2ccc(O)cc2)[C@H](O)[C@H](O)[C@H]1O | – | – | Active | Active | 5 | – | –
4 | C[C@@H]1O[C@@H](OC[C@H]2O[C@@H](Oc3c(-c4ccc(O)c(O)c4)oc4cc(O)cc(O)c4c3=O)[C@H](O)[C@@H](O)[C@H]2OC(=O)/C=C/c2ccc(O)cc2)[C@H](O)[C@H](O)[C@H]1O | 2 | 2 | – | – | – | – | –
5 | C[C@@H]1O[C@@H](OC[C@H]2O[C@@H](Oc3c(-c4ccc(O)c(O)c4)oc4cc(O)cc(O)c4c3=O)[C@H](O[C@@H]3O[C@@H](C)[C@H](OC(=O)/C=C/c4ccc(O)c(O)c4)[C@@H](O)[C@H]3O)[C@@H](OC(=O)/C=C/c3ccc(O)cc3)[C@H]2O)[C@H](O)[C@H](O)[C@H]1O | – | – | Active | Active | 10 | inactive | inactive
6 | C[C@@H]1O[C@@H](OC[C@H]2O[C@@H](Oc3c(-c4ccc(O)c(O)c4)oc4cc(O)cc(O)c4c3=O)[C@H](O[C@@H]3O[C@@H](C)[C@H](OC(=O)/C=C/c4ccc(O)cc4)[C@@H](O)[C@H]3O)[C@@H](OC(=O)/C=C/c3ccc(O)cc3)[C@H]2O)[C@H](O)[C@H](O)[C@H]1O | – | – | Active | Active | 10 | – | –
7 | C[C@@H]1O[C@@H](OC[C@H]2O[C@@H](Oc3c(-c4ccc(O)c(O)c4)oc4cc(O)cc(O)c4c3=O)[C@H](O[C@@H]3O[C@@H](C)[C@H](OC(=O)/C=C/c4ccc(O)cc4)[C@@H](O)[C@H]3O)[C@@H](O)[C@H]2OC(=O)/C=C/c2ccc(O)cc2)[C@H](O)[C@H](O)[C@H]1O | – | – | Active | Active | 5 | – | –
